The source made the active and inactive calls. No cut-off for these calls is given here.
What was measured:
[1] = system: Human immunodeficiency virus 1; assay: Inhibition of N-terminal autoprocessing of transframe region-comprising HIV1 protease PR20 mutant precursor up to 100 uM by SDS-PAGE method
[2] = Inhibition of HIV1 protease PR20 mutant expressed in Escherichia coli BL21 (DE3) incubated for 5 mins followed by Abz-Thr-Ile-Nle-p-nitro-Phe-GlnArg-NH2 substrate addition and measured over 5 mins by microplate reader based assay; design: species or system Human immunodeficiency virus 1
[3] = system: Human immunodeficiency virus 1; assay: Antiviral activity against HIV1 by cell based MTT assay; format: functional, organism-based
Protease = Protease (Human immunodeficiency virus 1, UniProt Q9YQ12); assay: Inhibition of wild type HIV1 protease
[4] = Binding affinity to HIV1 protease PR20 mutant expressed in Escherichia coli BL21 (DE3) assessed as ligand dissociation constant by ITC method; design: species or system Human immunodeficiency virus 1
[5] = system: Human immunodeficiency virus 1; assay: Antiviral activity against HIV1 LAI infected in human MT2 cells by MTT assay; format: functional, organism-based; conditions: Human immunodeficiency virus 1, LAI

Sequence of Protease (Q9YQ12 whole entry): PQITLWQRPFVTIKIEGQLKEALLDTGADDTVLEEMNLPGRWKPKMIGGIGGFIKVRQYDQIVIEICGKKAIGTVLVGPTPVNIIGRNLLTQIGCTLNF

Row | SMILES | inhibition [1] | Ki [2] [nM] | IC50 [3] [nM] | Ki (Protease) [nM] | Kd [4] [nM] | EC50 [5] [nM]
1 | COc1ccc(S(=O)(=O)N(CC(C)C)C[C@@H](O)[C@H](Cc2ccccc2)NC(=O)O[C@H]2CO[C@H]3OC[C@H](OC)[C@H]32)cc1 | inactive | 4.3 | 2.4 | 0.0029 |  | 
2 | CC(C)CN(C[C@@H](O)[C@H](Cc1ccccc1)NC(=O)O[C@H]1CO[C@H]2OCC[C@H]21)S(=O)(=O)c1ccc(N)cc1 |  |  |  |  | 41 | 
3 | CC(C)CN(C[C@@H](O)[C@H](Cc1ccccc1)NC(=O)O[C@H]1CO[C@H]2OCC(F)(F)[C@H]21)S(=O)(=O)c1ccc(N)cc1 | inactive | 1.7 |  | 0.0058 |  | 3

Source: ChEMBL document CHEMBL3576781, “Substituted Bis-THF Protease Inhibitors with Improved Potency against Highly Resistant Mature HIV-1 Protease PR20” (J Med Chem, 2015)
